{
  "source": "patent US20260124226A1",
  "about": "(priority 2023, published 2026)",
  "key": {"VEEV": {"system": "VEEV", "assay": "microbe, parasite or virus in culture", "type": "cell-based, Venezuelan equine encephalitis virus", "conditions": "Venezuelan equine encephalitis virus"}, "WEEV": {"system": "WEEV", "assay": "microbe, parasite or virus in culture", "type": "cell-based, Western equine encephalitis virus", "conditions": "Vero76 cells"}, "CHIKV": {"system": "CHIKV", "assay": "microbe, parasite or virus in culture", "type": "cell-based, Chikungunya virus"}, "La Crosse virus": {"system": "La Crosse virus", "assay": "microbe, parasite or virus in culture", "type": "cell-based"}, "Marpol virus": {"system": "Marpol virus", "assay": "organism not typed", "type": "cell-based"}, "Punta Toro virus": {"system": "Punta Toro virus", "assay": "microbe, parasite or virus in culture", "type": "cell-based"}, "[1]": {"system": "Severe fever thrombocytopenia syndrome virus", "assay": "organism not typed", "type": "cell-based", "conditions": "Vero"}, "Lassa fever virus": {"system": "Lassa fever virus", "assay": "organism not typed", "type": "cell-based", "conditions": "Vero"}, "[2]": {"system": "Lymphocytic choriomeningitis virus", "assay": "microbe, parasite or virus in culture", "type": "cell-based", "conditions": "Mammarenavirus choriomeningitidis, Vero"}, "Pichinde virus": {"system": "Pichinde virus", "assay": "microbe, parasite or virus in culture", "type": "cell-based", "conditions": "Vero"}, "Flu A H3N2": {"system": "Flu A H3N2", "assay": "microbe, parasite or virus in culture", "type": "cell-based, influenza A virus", "conditions": "Influenza A virus, H3N2, MDCK"}, "Parainfluenza virus 3": {"system": "Parainfluenza virus 3", "assay": "organism not typed", "type": "cell-based"}, "EBOV": {"system": "EBOV", "assay": "microbe, parasite or virus in culture", "type": "cell-based, Ebola virus", "conditions": "Zaire ebolavirus, Vero"}, "Marburg virus": {"system": "Marburg virus", "assay": "microbe, parasite or virus in culture", "type": "cell-based", "conditions": "Filoviridae, Vero"}, "MERS": {"system": "MERS", "assay": "microbe, parasite or virus in culture", "type": "cell-based, MERS coronavirus", "conditions": "Middle East respiratory syndrome-related coronavirus, Vero 76"}, "ZIKV": {"system": "ZIKV", "assay": "microbe, parasite or virus in culture", "type": "cell-based, Zika virus", "conditions": "Zika virus, Vero 76"}, "DENV2": {"system": "DENV2", "assay": "microbe, parasite or virus in culture", "type": "cell-based, Dengue virus 2", "conditions": "Dengue virus, DENV2, Huh-7"}, "Enterovirus-68": {"system": "Enterovirus-68", "assay": "microbe, parasite or virus in culture", "type": "cell-based, EV-D68"}, "HRV-14": {"system": "HRV-14", "assay": "microbe, parasite or virus in culture", "type": "cell-based, human rhinovirus"}, "Murine Norovirus": {"system": "Murine Norovirus", "assay": "microbe, parasite or virus in culture", "type": "cell-based", "conditions": "Norwalk virus, RAW264.7"}, "Human Norovirus": {"system": "Human Norovirus", "assay": "microbe, parasite or virus in culture", "type": "cell-based", "conditions": "HG23"}, "CEM": {"system": "CEM", "assay": "EIDD-2749 cytotoxicity", "type": "cell-based", "conditions": "CEM cells"}, "Huh-7": {"system": "Huh-7", "assay": "EIDD-2749 cytotoxicity", "type": "cell-based, human", "conditions": "Huh-7 cells"}, "A-204": {"system": "A-204", "assay": "EIDD-2749 cytotoxicity", "type": "cell-based", "conditions": "A-204 cells"}, "A549": {"system": "A549", "assay": "EIDD-2749 cytotoxicity", "type": "cell-based", "conditions": "A549 cells"}, "BxPc3": {"system": "BxPc3", "assay": "EIDD-2749 cytotoxicity", "type": "cell-based", "conditions": "BxPc3 cells"}, "H9c-2": {"system": "H9c-2", "assay": "EIDD-2749 cytotoxicity", "type": "cell-based", "conditions": "H9c-2 cells"}, "IEC-6": {"system": "IEC-6", "assay": "EIDD-2749 cytotoxicity", "type": "cell-based", "conditions": "IEC-6 cells"}, "Vero": {"system": "Vero", "assay": "EIDD-2749 cytotoxicity", "type": "cell-based, African green monkey", "conditions": "Vero cells"}, "Vero 76 cells": {"system": "Vero 76 cells", "conditions": "African green monkey"}, "Vero cells": {"system": "Vero cells", "conditions": "African green monkey"}, "Vero E6 cells": {"system": "Vero E6 cells", "conditions": "African green monkey"}, "MDCK cells": {"system": "MDCK cells", "conditions": "dog"}, "Huh-7 cells": {"system": "Huh-7 cells", "conditions": "human"}, "[3]": {"conditions": "CD-1, mouse, microsomes"}, "[4]": {"conditions": "male, Sprague-Dawley, rat, microsomes, pH 7.4"}, "[5]": {"conditions": "female, ICR (CD-1), mouse, in vivo"}, "Plasma stability [6]": {"assay": "Plasma stability", "conditions": "human plasma, drug 1.00 μM, 37° C."}, "Plasma stability [7]": {"assay": "Plasma stability", "conditions": "mouse plasma, drug 1.00 μM"}, "HG23 cells": {"system": "HG23 cells", "assay": "Cytotoxicity (CC50) run with the norovirus assay"}},
  "note": "Where “and” joins values, the source holds several entries; their conditions need not be identical. Identical values can stand only once. Like-named read-outs stand apart in the source and are kept apart here.",
  "data": [
    {"smiles": "O=c1ccn([C@@H]2O[C@](F)(CO)[C@@H](O)[C@H]2O)c(=O)[nH]1", "note": "[EIDD-2749, 4′-fluorouridine]", "values": [
      {"measurement": "EC90", "setting": "VEEV; Vero 76", "result": 213, "unit": "µM"},
      {"measurement": "EC50", "setting": "VEEV; Vero 76, VEEV strain TC-83, Vero 76 cells", "result": 7.6, "unit": "µM"},
      {"measurement": "EC50", "setting": "WEEV; WEEV strain California", "result": 11.8, "unit": "µM"},
      {"measurement": "EC50", "setting": "WEEV; Western equine encephalitis virus, Vero 76, WEEV strain California", "result": 9.88, "unit": "µM"},
      {"measurement": "EC50", "setting": "CHIKV", "result": "2.05 µM and 3.42 µM"},
      {"measurement": "EC50", "setting": "CHIKV; Chikungunya virus, Vero 76", "result": 1.98, "unit": "µM"},
      {"measurement": "EC90", "setting": "CHIKV; Chikungunya virus, Vero 76", "result": 9.12, "unit": "µM"},
      {"measurement": "EC50", "setting": "La Crosse virus", "result": "< 0.38", "unit": "µM"},
      {"measurement": "EC50", "setting": "Marpol virus", "result": 57, "unit": "µM"},
      {"measurement": "EC50", "setting": "Marpol virus; Vero C1008", "result": 95, "unit": "µM"},
      {"measurement": "EC50", "setting": "Punta Toro virus", "result": 91.2, "unit": "µM"},
      {"measurement": "EC50", "setting": "Punta Toro virus; Punta Toro virus, Vero 76", "result": 72.2, "unit": "µM"},
      {"measurement": "EC90", "setting": "[1]", "result": "> 380", "unit": "µM"},
      {"measurement": "EC50", "setting": "Lassa fever virus", "result": 0.38, "unit": "µM"},
      {"measurement": "EC90", "setting": "Lassa fever virus", "result": 9, "unit": "µM"},
      {"measurement": "EC90", "setting": "[2]", "result": 7.22, "unit": "µM"},
      {"measurement": "EC90", "setting": "Pichinde virus", "result": 0.19, "unit": "µM"},
      {"measurement": "EC50", "setting": "Flu A H3N2", "result": "< 0.38", "unit": "µM"},
      {"measurement": "EC50", "setting": "Parainfluenza virus 3", "result": 60.8, "unit": "µM"},
      {"measurement": "EC50", "setting": "Parainfluenza virus 3; MA104", "result": 98.8, "unit": "µM"},
      {"measurement": "EC50", "setting": "EBOV", "result": 1.52, "unit": "µM"},
      {"measurement": "EC90", "setting": "EBOV", "result": 22, "unit": "µM"},
      {"measurement": "EC50", "setting": "Marburg virus", "result": "> 380", "unit": "µM"},
      {"measurement": "EC50", "setting": "MERS", "result": "> 380", "unit": "µM"},
      {"measurement": "EC90", "setting": "ZIKV", "result": "> 380", "unit": "µM"},
      {"measurement": "EC50", "setting": "DENV2", "result": "> 380", "unit": "µM"},
      {"measurement": "EC50", "setting": "Enterovirus-68", "result": 11.8, "unit": "µM"},
      {"measurement": "EC50", "setting": "Enterovirus-68; Enterovirus D, RD", "result": 13.7, "unit": "µM"},
      {"measurement": "EC50", "setting": "HRV-14", "result": 1.14, "unit": "µM"},
      {"measurement": "EC50", "setting": "HRV-14; Rhinovirus B, HRV14", "result": 1.22, "unit": "µM"},
      {"measurement": "EC50", "setting": "Murine Norovirus", "result": 2.2, "unit": "µM"},
      {"measurement": "EC90", "setting": "Murine Norovirus", "result": 7.2, "unit": "µM"},
      {"measurement": "EC50", "setting": "Human Norovirus", "result": 2.7, "unit": "µM"},
      {"measurement": "EC90", "setting": "Human Norovirus", "result": 9.3, "unit": "µM"},
      {"measurement": "CC50", "setting": "CEM", "result": 107, "unit": "µM"},
      {"measurement": "CC50", "setting": "Huh-7", "result": "> 400", "unit": "µM"},
      {"measurement": "CC50", "setting": "A-204", "result": "> 400", "unit": "µM"},
      {"measurement": "CC50", "setting": "A549", "result": "> 400", "unit": "µM"},
      {"measurement": "CC50", "setting": "BxPc3", "result": "> 400", "unit": "µM"},
      {"measurement": "CC50", "setting": "H9c-2", "result": "> 400", "unit": "µM"},
      {"measurement": "CC50", "setting": "IEC-6", "result": 372, "unit": "µM"},
      {"measurement": "CC50", "setting": "Vero", "result": "> 400", "unit": "µM"},
      {"measurement": "CC50", "setting": "Vero 76 cells", "result": "> 380", "unit": "µM"},
      {"measurement": "CC50", "setting": "Vero cells", "result": "> 380", "unit": "µM"},
      {"measurement": "CC50", "setting": "Vero E6 cells", "result": "> 380", "unit": "µM"},
      {"measurement": "CC50", "setting": "MDCK cells", "result": "> 380", "unit": "µM"},
      {"measurement": "CC50", "setting": "Huh-7 cells", "result": "> 380", "unit": "µM"},
      {"measurement": "half-life", "setting": "[3]", "result": 0.45, "unit": "h"},
      {"measurement": "half-life", "setting": "[4]", "result": 0.417, "unit": "h"},
      {"measurement": "AUC-INF", "setting": "[5]; ip, 10 mg/kg", "result": 19.6, "unit": "µM·h"},
      {"measurement": "Cmax", "setting": "[5]; ip, 10 mg/kg", "result": "7.7 ± 2.3", "unit": "µM"},
      {"measurement": "t1/2", "setting": "[5]; ip, 10 mg/kg", "result": 6.3, "unit": "h"},
      {"measurement": "AUC-INF", "setting": "[5]; po, 50 mg/kg", "result": 232.3, "unit": "µM·h"},
      {"measurement": "Bioavailability", "setting": "[5]; po, 50 mg/kg", "result": 236, "unit": "%"},
      {"measurement": "Cmax", "setting": "[5]; po, 50 mg/kg", "result": "35.2 ± 9.7", "unit": "µM"},
      {"measurement": "t1/2", "setting": "[5]; po, 50 mg/kg", "result": 8.3, "unit": "h"},
      {"measurement": "AUC-INF", "setting": "[5]; po, 150 mg/kg", "result": 392.3, "unit": "µM·h"},
      {"measurement": "Bioavailability", "setting": "[5]; po, 150 mg/kg", "result": 133, "unit": "%"},
      {"measurement": "Cmax", "setting": "[5]; po, 150 mg/kg", "result": "43.6 ± 2.8", "unit": "µM"},
      {"measurement": "t1/2", "setting": "[5]; po, 150 mg/kg", "result": 8.5, "unit": "h"},
      {"measurement": "AUC-INF", "setting": "[5]; po, 500 mg/kg", "result": 755.2, "unit": "µM·h"},
      {"measurement": "Bioavailability", "setting": "[5]; po, 500 mg/kg", "result": 77.0, "unit": "%"},
      {"measurement": "Cmax", "setting": "[5]; po, 500 mg/kg", "result": "76 ± 15.3", "unit": "µM"},
      {"measurement": "t1/2", "setting": "[5]; po, 500 mg/kg", "result": 12.9, "unit": "h"},
      {"measurement": "half-life", "setting": "Plasma stability [6]", "result": 0.433, "unit": "h"},
      {"measurement": "half-life", "setting": "Plasma stability [7]", "result": 0.617, "unit": "h"},
      {"measurement": "CC50", "setting": "HG23 cells", "result": 100, "unit": "µM"}
    ]}
  ]
}
